According to ChEMBL document CHEMBL4346729, “The discovery of novel 3-aryl-indazole derivatives as peripherally restricted pan-Trk inhibitors for the treatment of pain” (Bioorg Med Chem Lett, 2019):

Columns and labels:
[1] = Clearance in Sprague-Dawley rat at 1 mg/kg, iv; type: ADME, organism-based; conditions: in vivo
[2] = Cmax in Sprague-Dawley rat at 5 mg/kg, po; type: ADME, organism-based; set-up: dose 5 mg/kg, route oral; conditions: in vivo
[3] = Half life in Sprague-Dawley rat at 1 mg/kg, iv; type: ADME, organism-based; conditions: in vivo
[4] = Protein binding in Sprague-Dawley rat brain; type: ADME, tissue-based; conditions: read-out: PB (converted)
Rattus norvegicus [5] = experiment: Unbound drug level in plasma of CFA induced Sprague-Dawley rat at 0.8 mg/kg, po after 1 hr; type: ADME, organism-based; conditions: in vivo
[6] = Unbound drug level in brain of CFA induced Sprague-Dawley rat at 0.8 mg/kg, po after 1 hr; type: ADME, organism-based; conditions: in vivo, BLD = below limit of detection
[7] = biological target: BDNF/NT-3 growth factors receptor (Homo sapiens, UniProt Q16620); experiment: Inhibition of human GST-tagged TRKB (456 to 822) expressed in baculovirus expression system using TK-biotin peptide as substrate incubated for 45 min by TR-FRET assay
Rattus norvegicus [8] = experiment: Unbound drug level in plasma of CFA induced Sprague-Dawley rat at 4 mg/kg, po after 1 hr; type: ADME, organism-based; conditions: in vivo
Rattus norvegicus [9] = experiment: Unbound drug level in plasma of CFA induced Sprague-Dawley rat at 20 mg/kg, po after 1 hr; type: ADME, organism-based; conditions: in vivo
[10] = Toxicity in CFA induced Sprague-Dawley rat assessed as increase in weight gain at 100 mg/kg, po and measured up to 3 days; type: organism-based; conditions: in vivo, 72 h
[11] = Toxicity in CFA induced Sprague-Dawley rat assessed as increase in weight gain at 20 mg/kg, po and measured up to 3 days; type: organism-based; conditions: in vivo, 72 h
[12] = biological target: Tyrosine-protein kinase ABL1 (Homo sapiens) (UniProt P00519); experiment: Inhibition of recombinant human N-terminal GST/His6-tagged ABL1 wt internal (P118 to S535) expressed in Sf9 insect cells at 20 nM using phosphatidylserine as substrate incubated for 60 mins in presence of [33P]-ATP by scintillation counting method
[13] = biological target: Activin receptor type-1 (Homo sapiens) (UniProt Q04771); experiment: Inhibition of recombinant human N-terminal GST/His6-tagged ACVR1 C-terminal (A145 to C509) expressed in Sf9 insect cells at 20 nM using phosphatidylserine as substrate incubated for 60 mins in presence of [33P]-ATP by scintillation counting method
[14] = biological target: 5'-AMP-activated protein kinase catalytic subunit alpha-1 (Homo sapiens) (UniProt Q13131); experiment: Inhibition of recombinant human full length N-terminal GST/His6-tagged AMPKalpha1 (M1 to Q550) expressed in Sf9 insect cells at 20 nM using phosphatidylserine as substrate incubated for 60 mins in presence of [33P]-ATP by scintillation counting method
[15] = biological target: Tyrosine-protein kinase BTK (Homo sapiens) (UniProt Q06187); experiment: Inhibition of recombinant human full length N-terminal GST/His6-tagged BTK (M1 to S659) expressed in Sf9 insect cells at 20 nM using phosphatidylserine as substrate incubated for 60 mins in presence of [33P]-ATP by scintillation counting method
[16] = biological target: Cyclin-dependent kinase 2/cyclin E1 (Homo sapiens) (UniProt P24864+P24941); experiment: Inhibition of CDK2/Cyclin-E1 (unknown origin) at 20 nM using Phosphatidylserine as substrate incubated for 60 mins in presence of [33P]-ATP by scintillation counting method; type: protein-complex assay
[17] = biological target: Casein kinase I isoform delta (Homo sapiens) (UniProt P48730); experiment: Inhibition of CK1-delta (unknown origin) at 20 nM using phosphatidylserine as substrate incubated for 60 mins in presence of [33P]-ATP by scintillation counting method
[18] = biological target: Mitogen-activated protein kinase 3 (Homo sapiens) (UniProt P27361); experiment: Inhibition of recombinant human full length N-terminal GST/His6-tagged ERK1 (M1 to P379) expressed in Escherichia coli at 20 nM using phosphatidylserine as substrate incubated for 60 mins in presence of [33P]-ATP by scintillation counting method
[19] = biological target: Dual specificity tyrosine-phosphorylation-regulated kinase 1A (Homo sapiens) (UniProt Q13627); experiment: Inhibition of DYRK1A (unknown origin) at 20 nM using phosphatidylserine as substrate incubated for 60 mins in presence of [33P]-ATP by scintillation counting method
[20] = biological target: Interleukin-1 receptor-associated kinase 4 (Homo sapiens) (UniProt Q9NWZ3); experiment: Inhibition of recombinant human IRAK4 C-terminal (A104 to S460) expressed in Sf9 insect cells at 20 nM using phosphatidylserine as substrate incubated for 60 mins in presence of [33P]-ATP by scintillation counting method
[21] = biological target: Tyrosine-protein kinase JAK1 (Homo sapiens) (UniProt P23458); experiment: Inhibition of recombinant human N-terminal GST/His6-tagged JAK1 wt (L583 to K1154) expressed in Sf9 insect cells at 20 nM using phosphatidylserine as substrate incubated for 60 mins in presence of [33P]-ATP by scintillation counting method
[22] = biological target: Tyrosine-protein kinase Lck (Homo sapiens) (UniProt P06239); experiment: Inhibition of recombinant human full length N-terminal GST/His6-tagged LCK (M1 to P509) expressed in Sf9 insect cells at 20 nM using phosphatidylserine as substrate incubated for 60 mins in presence of [33P]-ATP by scintillation counting method
[23] = biological target: MAP kinase-activated protein kinase 2 (Homo sapiens) (UniProt P49137); experiment: Inhibition of recombinant human full length N-terminal GST/His6-tagged MAPKAPK2 (M1 to L370) expressed in Sf9 insect cells at 20 nM using phosphatidylserine as substrate incubated for 60 mins in presence of [33P]-ATP by scintillation counting method
[24] = biological target: MAP kinase-activated protein kinase 5 (Homo sapiens) (UniProt Q8IW41); experiment: Inhibition of recombinant human full length MAPKAPK5 (M1 to Q471) expressed in Escherichia coli at 20 nM using phosphatidylserine as substrate incubated for 60 mins in presence of [33P]-ATP by scintillation counting method
[25] = biological target: Serine/threonine-protein kinase pim-2 (Homo sapiens) (UniProt Q9P1W9); experiment: Inhibition of recombinant human full length N-terminal GST/His6-tagged PIM2 (M1 to P311) expressed in baculovirus infected Sf9 insect cells at 20 nM using phosphatidylserine as substrate incubated for 60 mins in presence of [33P]-ATP by scintillation counting method
[26] = biological target: Protein kinase C theta type (Homo sapiens) (UniProt Q04759); experiment: Inhibition of recombinant human full length N-terminal GST and C-terminal His6-tagged PKC-theta (M1 to S706) expressed in Sf9 insect cells at 20 nM using phosphatidylserine as substrate incubated for 60 mins in presence of [33P]-ATP by scintillation counting method
[27] = biological target: Ribosomal protein S6 kinase beta-1 (Homo sapiens) (UniProt P23443); experiment: Inhibition of recombinant human N-terminal GST/His6-tagged S6K internal ([…]) expressed in Sf9 insect cells at 20 nM using phosphatidylserine as substrate incubated for 60 mins in presence of [33P]-ATP by scintillation counting method

Sequence of Tyrosine-protein kinase JAK1 (Homo sapiens) (P23458 whole entry): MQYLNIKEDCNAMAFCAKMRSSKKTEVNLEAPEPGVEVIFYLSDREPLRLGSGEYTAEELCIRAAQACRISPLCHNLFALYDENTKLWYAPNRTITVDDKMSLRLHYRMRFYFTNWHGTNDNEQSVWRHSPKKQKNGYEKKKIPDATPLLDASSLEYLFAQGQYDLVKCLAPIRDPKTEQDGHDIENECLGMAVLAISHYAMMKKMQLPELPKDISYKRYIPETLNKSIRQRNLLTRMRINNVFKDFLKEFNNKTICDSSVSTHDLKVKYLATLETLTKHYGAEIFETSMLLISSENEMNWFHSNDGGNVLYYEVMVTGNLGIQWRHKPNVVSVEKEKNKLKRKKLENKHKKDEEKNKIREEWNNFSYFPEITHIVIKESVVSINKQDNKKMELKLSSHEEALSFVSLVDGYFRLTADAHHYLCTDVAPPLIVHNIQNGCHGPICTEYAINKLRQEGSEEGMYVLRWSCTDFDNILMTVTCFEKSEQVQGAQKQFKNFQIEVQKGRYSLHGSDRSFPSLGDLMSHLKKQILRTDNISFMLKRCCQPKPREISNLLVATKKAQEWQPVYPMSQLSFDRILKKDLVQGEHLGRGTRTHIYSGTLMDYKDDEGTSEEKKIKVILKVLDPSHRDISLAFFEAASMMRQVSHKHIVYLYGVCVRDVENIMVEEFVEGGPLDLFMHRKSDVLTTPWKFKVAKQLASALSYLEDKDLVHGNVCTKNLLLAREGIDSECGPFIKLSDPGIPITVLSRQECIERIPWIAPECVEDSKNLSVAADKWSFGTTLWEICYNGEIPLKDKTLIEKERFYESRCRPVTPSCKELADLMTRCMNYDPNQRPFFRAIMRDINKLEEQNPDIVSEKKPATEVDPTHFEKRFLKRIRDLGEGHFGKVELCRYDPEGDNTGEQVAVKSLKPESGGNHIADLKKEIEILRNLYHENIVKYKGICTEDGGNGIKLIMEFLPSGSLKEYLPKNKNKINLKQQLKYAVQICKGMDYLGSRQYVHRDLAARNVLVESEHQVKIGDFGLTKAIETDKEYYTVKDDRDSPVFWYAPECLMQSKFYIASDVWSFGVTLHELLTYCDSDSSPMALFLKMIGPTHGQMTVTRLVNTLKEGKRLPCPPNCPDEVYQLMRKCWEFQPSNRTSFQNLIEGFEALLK
Sequence of MAP kinase-activated protein kinase 5 (Homo sapiens) (Q8IW41 whole entry): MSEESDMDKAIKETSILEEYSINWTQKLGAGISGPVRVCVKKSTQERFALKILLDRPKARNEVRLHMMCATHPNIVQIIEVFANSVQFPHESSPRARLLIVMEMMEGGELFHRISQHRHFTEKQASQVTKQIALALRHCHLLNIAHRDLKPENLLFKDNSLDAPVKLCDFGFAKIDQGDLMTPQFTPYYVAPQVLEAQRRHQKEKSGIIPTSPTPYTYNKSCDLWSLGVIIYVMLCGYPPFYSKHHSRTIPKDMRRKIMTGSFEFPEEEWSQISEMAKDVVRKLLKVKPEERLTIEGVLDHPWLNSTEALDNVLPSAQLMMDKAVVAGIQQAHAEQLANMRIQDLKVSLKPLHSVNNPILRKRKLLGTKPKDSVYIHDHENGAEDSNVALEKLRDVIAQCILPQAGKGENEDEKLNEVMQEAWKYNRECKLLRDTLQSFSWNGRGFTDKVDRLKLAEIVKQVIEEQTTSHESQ
Sequence of MAP kinase-activated protein kinase 2 (Homo sapiens) (P49137 whole entry, looked up): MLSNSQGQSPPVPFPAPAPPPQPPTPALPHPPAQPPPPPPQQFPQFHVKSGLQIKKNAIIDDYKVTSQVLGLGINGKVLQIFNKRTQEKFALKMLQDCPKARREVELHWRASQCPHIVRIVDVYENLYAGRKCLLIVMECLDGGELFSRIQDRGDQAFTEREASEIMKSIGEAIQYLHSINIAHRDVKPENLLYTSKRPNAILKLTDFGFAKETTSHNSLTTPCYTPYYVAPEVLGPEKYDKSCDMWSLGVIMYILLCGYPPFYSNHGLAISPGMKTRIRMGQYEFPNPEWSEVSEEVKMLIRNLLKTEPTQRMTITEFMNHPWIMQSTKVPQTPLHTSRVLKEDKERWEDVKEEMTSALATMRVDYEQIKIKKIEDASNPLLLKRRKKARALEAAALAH
Sequence of Serine/threonine-protein kinase pim-2 (Homo sapiens) (Q9P1W9 whole entry, looked up): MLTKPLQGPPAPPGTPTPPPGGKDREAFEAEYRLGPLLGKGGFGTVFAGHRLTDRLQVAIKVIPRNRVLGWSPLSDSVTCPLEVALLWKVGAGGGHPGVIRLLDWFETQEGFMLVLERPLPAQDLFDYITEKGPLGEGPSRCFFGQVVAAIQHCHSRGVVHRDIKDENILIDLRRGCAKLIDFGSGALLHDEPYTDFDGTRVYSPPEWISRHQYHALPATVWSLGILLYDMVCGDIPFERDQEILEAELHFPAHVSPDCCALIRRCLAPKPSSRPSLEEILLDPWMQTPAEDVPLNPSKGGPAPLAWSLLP
Sequence of 5'-AMP-activated protein kinase catalytic subunit alpha-1 (Homo sapiens) (Q13131 whole entry, looked up): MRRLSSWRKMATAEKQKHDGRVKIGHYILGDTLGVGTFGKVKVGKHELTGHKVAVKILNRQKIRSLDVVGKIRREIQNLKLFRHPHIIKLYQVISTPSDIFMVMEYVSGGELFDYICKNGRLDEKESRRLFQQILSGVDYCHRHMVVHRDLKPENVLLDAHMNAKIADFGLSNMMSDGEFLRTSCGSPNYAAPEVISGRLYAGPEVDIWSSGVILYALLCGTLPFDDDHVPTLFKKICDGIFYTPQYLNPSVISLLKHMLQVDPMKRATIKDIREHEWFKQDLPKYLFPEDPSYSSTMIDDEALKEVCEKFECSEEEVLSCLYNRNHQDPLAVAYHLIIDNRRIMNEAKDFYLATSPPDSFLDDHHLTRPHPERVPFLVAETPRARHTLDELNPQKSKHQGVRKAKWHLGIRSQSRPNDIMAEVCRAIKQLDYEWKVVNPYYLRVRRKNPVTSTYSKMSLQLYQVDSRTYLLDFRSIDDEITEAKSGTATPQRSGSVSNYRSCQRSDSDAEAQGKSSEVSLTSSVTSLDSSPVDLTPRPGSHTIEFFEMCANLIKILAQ
Sequence of Tyrosine-protein kinase ABL1 (Homo sapiens) (P00519 whole entry): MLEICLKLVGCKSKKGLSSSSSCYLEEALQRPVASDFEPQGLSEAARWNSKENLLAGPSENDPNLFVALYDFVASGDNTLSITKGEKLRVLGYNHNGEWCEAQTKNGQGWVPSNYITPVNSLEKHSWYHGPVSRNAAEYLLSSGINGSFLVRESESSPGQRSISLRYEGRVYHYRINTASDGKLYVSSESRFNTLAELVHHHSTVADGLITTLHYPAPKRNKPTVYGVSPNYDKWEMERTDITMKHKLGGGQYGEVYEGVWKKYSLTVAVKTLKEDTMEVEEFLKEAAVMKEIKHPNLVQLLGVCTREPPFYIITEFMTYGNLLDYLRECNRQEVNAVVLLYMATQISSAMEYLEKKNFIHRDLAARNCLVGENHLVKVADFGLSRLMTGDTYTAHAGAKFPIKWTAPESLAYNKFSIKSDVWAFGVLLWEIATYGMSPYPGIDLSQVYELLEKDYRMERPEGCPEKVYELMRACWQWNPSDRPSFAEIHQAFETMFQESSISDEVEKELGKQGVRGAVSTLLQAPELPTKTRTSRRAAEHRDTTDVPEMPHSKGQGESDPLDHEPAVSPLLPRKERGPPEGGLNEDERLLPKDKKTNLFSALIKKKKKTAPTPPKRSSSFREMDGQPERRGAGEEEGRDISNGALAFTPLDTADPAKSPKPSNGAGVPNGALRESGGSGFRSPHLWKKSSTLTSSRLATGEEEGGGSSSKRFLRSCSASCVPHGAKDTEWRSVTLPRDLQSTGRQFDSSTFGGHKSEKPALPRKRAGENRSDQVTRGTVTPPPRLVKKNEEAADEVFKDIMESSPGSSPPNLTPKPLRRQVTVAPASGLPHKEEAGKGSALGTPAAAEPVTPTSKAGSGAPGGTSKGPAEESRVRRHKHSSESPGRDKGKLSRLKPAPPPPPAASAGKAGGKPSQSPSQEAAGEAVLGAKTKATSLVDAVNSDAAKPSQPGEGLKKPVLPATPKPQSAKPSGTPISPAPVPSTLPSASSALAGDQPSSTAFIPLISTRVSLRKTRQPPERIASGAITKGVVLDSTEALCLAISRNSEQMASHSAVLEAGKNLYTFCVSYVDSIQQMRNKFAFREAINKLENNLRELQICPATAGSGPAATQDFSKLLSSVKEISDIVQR
Sequence of Protein kinase C theta type (Homo sapiens) (Q04759 whole entry, looked up): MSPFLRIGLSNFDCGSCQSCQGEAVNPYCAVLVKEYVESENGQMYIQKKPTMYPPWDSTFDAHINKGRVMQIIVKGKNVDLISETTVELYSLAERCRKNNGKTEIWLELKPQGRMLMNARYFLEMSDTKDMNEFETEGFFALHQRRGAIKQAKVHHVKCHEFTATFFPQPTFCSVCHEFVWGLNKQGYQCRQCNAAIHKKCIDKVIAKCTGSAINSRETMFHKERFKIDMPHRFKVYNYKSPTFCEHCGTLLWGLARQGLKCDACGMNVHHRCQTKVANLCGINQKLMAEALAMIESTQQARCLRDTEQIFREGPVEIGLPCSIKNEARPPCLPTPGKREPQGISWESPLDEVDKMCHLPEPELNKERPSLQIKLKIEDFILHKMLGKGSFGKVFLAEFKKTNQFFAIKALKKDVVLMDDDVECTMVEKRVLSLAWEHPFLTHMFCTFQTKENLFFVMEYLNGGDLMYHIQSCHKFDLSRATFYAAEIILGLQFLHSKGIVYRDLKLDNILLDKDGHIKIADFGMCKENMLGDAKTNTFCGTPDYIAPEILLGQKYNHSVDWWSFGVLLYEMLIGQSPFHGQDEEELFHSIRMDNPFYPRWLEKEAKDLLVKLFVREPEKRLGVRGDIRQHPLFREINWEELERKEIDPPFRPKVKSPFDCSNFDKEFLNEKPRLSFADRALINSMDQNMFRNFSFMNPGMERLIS

Cn1cc(-c2n[nH]c3ccc(NCc4cc(F)ccc4S(C)(=O)=O)cc23)cn1
clearance [1]: 4.4 L/h/kg
Cmax [2]: 0.161 µM
half-life [3]: 1.46 h
fraction unbound [4]: 0.038
Cp(f) (Rattus norvegicus [5]): 0.0047 µM
Drug uptake(free) [6]: Bld
IC50 [7]: 0.2 nM
Cp(f) (Rattus norvegicus [8]): 0.0149 µM
Cp(f) (Rattus norvegicus [9]): 0.0709 µM
Activity [10]: Toxic
Activity [11]: Non-Toxic
inhibition [12]: 1%
inhibition [13]: -2%
inhibition [14]: -9%
inhibition [15]: -6%
inhibition [16]: 5%
inhibition [17]: 5%
inhibition [18]: -9%
inhibition [19]: -7%
inhibition [20]: -8%
inhibition [21]: -5%
inhibition [22]: -6%
inhibition [23]: 19%
inhibition [24]: 6%
inhibition [25]: -1%
inhibition [26]: -2%
inhibition [27]: 3%
